{"source": "paper PMC5218480", "about": "(PLoS ONE, 2017)", "test_system": "MV-4-11 cells", "test": "Gene expression microarray analysis (Affymetrix PrimeView) and GSEA", "format": "cell-based, human", "set-up": "RFU PODN (11730768_x_at) / Fold change /veh PODN (11730768_x_at) / RFU LINC00158 (11744669_a_at) / Fold change /veh LINC00158 (11744669_a_at) / RFU DUSP10 (11751237_a_at) / Fold change /veh DUSP10 (11751237_a_at) / RFU ID3 (11757404_x_at) / Fold change /veh ID3 (11757404_x_at) / RFU PLEKHG5 (11737974_s_at) / Fold change /veh PLEKHG5 (11737974_s_at) / RFU LRRC4B (11730491_at) / Fold change /veh LRRC4B (11730491_at) / RFU GIMAP4 (11747438_a_at) / Fold change /veh GIMAP4 (11747438_a_at) / RFU KRT8 (11758183_x_at) / Fold change /veh KRT8 (11758183_x_at) / RFU CNN1 (11734310_a_at) / Fold change /veh CNN1 (11734310_a_at) / RFU VPS37D (11726825_at) / Fold change /veh VPS37D (11726825_at) / RFU C10orf10 (11716522_x_at) / Fold change /veh C10orf10 (11716522_x_at) / RFU KIR2DL2 /// KIR2DL4 /// KIR2DL5A /// KIR2DL5B /// KIR2DS1 /// KIR2DS2 /// KIR2DS3 /// KIR2DS4 /// KIR3DL3 /// KIR3DL3 /// KIR3DS1 (11738374_at) / Fold change /veh KIR2DL2 /// KIR2DL4 /// KIR2DL5A /// KIR2DL5B /// KIR2DS1 /// KIR2DS2 /// KIR2DS3 /// KIR2DS4 /// KIR3DL3 /// KIR3DL3 /// KIR3DS1 (11738374_at) / RFU C1QL1 (11718748_at) / Fold change /veh C1QL1 (11718748_at) / RFU TMPRSS4 (11747572_a_at) / Fold change /veh TMPRSS4 (11747572_a_at) / RFU HAMP (11756126_x_at) / Fold change /veh HAMP (11756126_x_at) / RFU RNFT2 (11725882_a_at) / Fold change /veh RNFT2 (11725882_a_at) / RFU NR4A2 (11747474_a_at) / Fold change /veh NR4A2 (11747474_a_at) / RFU ABCC12 (11746883_a_at) / Fold change /veh ABCC12 (11746883_a_at) / RFU TMEM136 (11760407_x_at) / Fold change /veh TMEM136 (11760407_x_at) / RFU CLDN22 /// WWC2 (11732394_at) / Fold change /veh CLDN22 /// WWC2 (11732394_at) / RFU HLA-DPB1 (11760878_x_at) / Fold change /veh HLA-DPB1 (11760878_x_at) / RFU SPINT1 (11716480_a_at) / Fold change /veh SPINT1 (11716480_a_at) / RFU GAP43 (11754022_s_at) / Fold change /veh GAP43 (11754022_s_at) / RFU A4GNT (11735810_at) / Fold change /veh A4GNT (11735810_at) / RFU PRB3 (11715151_x_at) / Fold change /veh PRB3 (11715151_x_at) / RFU TUBB4B (11761932_at) / Fold change /veh TUBB4B (11761932_at) / RFU CAPN14 (11732068_a_at) / Fold change /veh CAPN14 (11732068_a_at) / RFU TMCC2 (11721928_a_at) / Fold change /veh TMCC2 (11721928_a_at) / RFU IRGQ (11745062_a_at) / Fold change /veh IRGQ (11745062_a_at) / RFU FAM174B (11720279_a_at) / Fold change /veh FAM174B (11720279_a_at) / RFU TMPRSS4 (11748680_a_at) / Fold change /veh TMPRSS4 (11748680_a_at) / RFU FAM212B (11763350_a_at) / Fold change /veh FAM212B (11763350_a_at) / RFU PLEKHG5 (11743358_a_at) / Fold change /veh PLEKHG5 (11743358_a_at) / RFU ZSCAN30 (11745921_a_at) / Fold change /veh ZSCAN30 (11745921_a_at) / RFU CMKLR1 (11741424_a_at) / Fold change /veh CMKLR1 (11741424_a_at) / RFU LOC101060620 /// MAPK8IP1 (11723275_at) / Fold change /veh LOC101060620 /// MAPK8IP1 (11723275_at) / RFU SPTSSB (11747773_x_at) / Fold change /veh SPTSSB (11747773_x_at) / RFU PRSS12 (11739890_at) / Fold change /veh PRSS12 (11739890_at) / RFU BIN1 (11741810_x_at) / Fold change /veh BIN1 (11741810_x_at) / RFU WNT11 (11732464_a_at) / Fold change /veh WNT11 (11732464_a_at) / RFU C10orf10 (11716521_a_at) / Fold change /veh C10orf10 (11716521_a_at) / RFU C5orf56 (11738089_at) / Fold change /veh C5orf56 (11738089_at) / RFU CYB561 (11721691_x_at) / Fold change /veh CYB561 (11721691_x_at) / RFU ANKRD19P (11752326_a_at) / Fold change /veh ANKRD19P (11752326_a_at) / RFU OR2T12 /// OR2T33 /// OR2T8 (11738714_s_at) / Fold change /veh OR2T12 /// OR2T33 /// OR2T8 (11738714_s_at) / RFU VCAN (11748164_a_at) / Fold change /veh VCAN (11748164_a_at) / RFU JSRP1 (11732532_at) / Fold change /veh JSRP1 (11732532_at) / RFU KRTAP10-11 (11738290_x_at) / Fold change /veh KRTAP10-11 (11738290_x_at) / RFU MYO3A (11730013_a_at) / Fold change /veh MYO3A (11730013_a_at) / RFU EBF3 (11725865_a_at) / Fold change /veh EBF3 (11725865_a_at) / RFU CAMK2N1 (11719241_x_at) / Fold change /veh CAMK2N1 (11719241_x_at) / RFU C5orf56 (11738088_a_at) / Fold change /veh C5orf56 (11738088_a_at) / RFU OLFML3 (11715873_a_at) / Fold change /veh OLFML3 (11715873_a_at) / RFU LOC100653217 /// NTM (11731650_a_at) / Fold change /veh LOC100653217 /// NTM (11731650_a_at) / RFU MAPK11 (11762145_a_at) / Fold change /veh MAPK11 (11762145_a_at) / RFU FIZ1 (11724087_x_at) / Fold change /veh FIZ1 (11724087_x_at) / RFU OASL (11726364_x_at) / Fold change /veh OASL (11726364_x_at) / RFU SOX15 (11748057_x_at) / Fold change /veh SOX15 (11748057_x_at) / RFU CD79A (11719716_a_at) / Fold change /veh CD79A (11719716_a_at) / RFU HIST1H1D (11736915_at) / Fold change /veh HIST1H1D (11736915_at) / RFU CASKIN2 (11723855_a_at) / Fold change /veh CASKIN2 (11723855_a_at) / RFU LOC730098 (11760151_x_at) / Fold change /veh LOC730098 (11760151_x_at) / RFU OR4N2 (11742367_at) / Fold change /veh OR4N2 (11742367_at) / RFU PRRT2 (11749266_a_at) / Fold change /veh PRRT2 (11749266_a_at) / RFU SNX32 (11753110_a_at) / Fold change /veh SNX32 (11753110_a_at) / RFU CDHR5 (11726645_a_at) / Fold change /veh CDHR5 (11726645_a_at) / RFU RCAN1 (11760418_a_at) / Fold change /veh RCAN1 (11760418_a_at) / RFU FAM167A (11723789_a_at) / Fold change /veh FAM167A (11723789_a_at) / RFU FAM26E (11764081_at) / Fold change /veh FAM26E (11764081_at) / RFU ISYNA1 (11749810_s_at) / Fold change /veh ISYNA1 (11749810_s_at) / RFU ACY1 (11761880_at) / Fold change /veh ACY1 (11761880_at) / RFU 11764098_at / Fold change /veh 11764098_at / RFU SAMD14 (11745864_x_at) / Fold change /veh SAMD14 (11745864_x_at) / RFU NPB (11741838_a_at) / Fold change /veh NPB (11741838_a_at) / RFU TMPRSS6 (11731388_a_at) / Fold change /veh TMPRSS6 (11731388_a_at) / RFU KRTAP10-2 (11738614_at) / Fold change /veh KRTAP10-2 (11738614_at) / RFU ARHGAP8 /// PRR5-ARHGAP8 (11727945_x_at) / Fold change /veh ARHGAP8 /// PRR5-ARHGAP8 (11727945_x_at) / RFU KRTAP5-7 /// NADSYN1 (11734609_at) / Fold change /veh KRTAP5-7 /// NADSYN1 (11734609_at) / RFU RASL12 (11751679_a_at) / Fold change /veh RASL12 (11751679_a_at) / RFU CDKN2B (11736163_a_at) / Fold change /veh CDKN2B (11736163_a_at) / RFU PRF1 (11729649_at) / Fold change /veh PRF1 (11729649_at) / RFU, ZNF638 /// ZNF638-IT1 / Fold change vs veh, ZNF638 /// ZNF638-IT1 / RFU, PANK3 / Fold change vs veh, PANK3 / RFU, SH3YL1 / Fold change vs veh, SH3YL1 / RFU, ZEB2 / Fold change vs veh, ZEB2 / RFU, NRIP1 / Fold change vs veh, NRIP1 / RFU, PTTG1IP / Fold change vs veh, PTTG1IP / RFU, CAPN2 / Fold change vs veh, CAPN2 / RFU, MED14 / Fold change vs veh, MED14 / RFU, SNORA58 / Fold change vs veh, SNORA58 / RFU, C1orf63 / Fold change vs veh, C1orf63 / RFU, LRRFIP1 / Fold change vs veh, LRRFIP1 / RFU, NDUFAF7 / Fold change vs veh, NDUFAF7 / RFU, SLC12A2 / Fold change vs veh, SLC12A2 / RFU, IBTK / Fold change vs veh, IBTK / RFU, ESF1 / Fold change vs veh, ESF1 / Fold change vs veh, TMEM50B / RFU, TAOK1 / Fold change vs veh, TAOK1 / RFU, ACBD3 / Fold change vs veh, ACBD3 / RFU, TMA16 / Fold change vs veh, TMA16 / RFU, RWDD3 / Fold change vs veh, RWDD3 / RFU, BCAT1 / Fold change vs veh, BCAT1 / RFU, EDEM3 / Fold change vs veh, EDEM3 / RFU, TMEM33 / Fold change vs veh, TMEM33 / RFU, WDR75 / Fold change vs veh, WDR75 / RFU, AHCTF1 / Fold change vs veh, AHCTF1 / RFU, TFRC / Fold change vs veh, TFRC / RFU, ZDHHC17 / Fold change vs veh, ZDHHC17 / RFU, NOM1 / Fold change vs veh, NOM1 / RFU, ARL8B / Fold change vs veh, ARL8B / RFU, ZBTB11 / Fold change vs veh, ZBTB11 / RFU, TAMM41 / Fold change vs veh, TAMM41 / RFU, KIAA1704 /// LOC100996395 / Fold change vs veh, KIAA1704 /// LOC100996395 / RFU, ING1 / Fold change vs veh, ING1 / RFU, TRMT61B / Fold change vs veh, TRMT61B / RFU, FUBP3 / Fold change vs veh, FUBP3 / RFU, TP53 / Fold change vs veh, TP53 / RFU, TNKS2 / Fold change vs veh, TNKS2 / RFU, ZFP14 / Fold change vs veh, ZFP14 / RFU, ACTR2 / Fold change vs veh, ACTR2 / RFU, PPP3R1 / Fold change vs veh, PPP3R1 / RFU, PIK3R1 / Fold change vs veh, PIK3R1 / RFU, HNRNPA1 / Fold change vs veh, HNRNPA1 / RFU, RNF170 / Fold change vs veh, RNF170 / RFU, ZNF28 / Fold change vs veh, ZNF28 / RFU, RNGTT / Fold change vs veh, RNGTT / RFU, OGT / Fold change vs veh, OGT / RFU, BRD1 / Fold change vs veh, BRD1 / RFU, MARS / Fold change vs veh, MARS / RFU, ZNF655 / Fold change vs veh, ZNF655 / RFU, FAHD1 / Fold change vs veh, FAHD1 / RFU, BDP1 / Fold change vs veh, BDP1 / RFU, LRRCC1 / Fold change vs veh, LRRCC1 / RFU, ARID1A / Fold change vs veh, ARID1A / RFU, ZNF146 / Fold change vs veh, ZNF146 / RFU, ZNF330 / Fold change vs veh, ZNF330 / RFU, GPN3 / Fold change vs veh, GPN3 / RFU, C9orf123 / Fold change vs veh, C9orf123 / RFU, N4BP2L2 / Fold change vs veh, N4BP2L2 / RFU, ARFIP1 / Fold change vs veh, ARFIP1 / RFU, FAM179B / Fold change vs veh, FAM179B / RFU, BCL10 / Fold change vs veh, BCL10 / RFU, UHRF1BP1L / Fold change vs veh, UHRF1BP1L / RFU, BET1 / Fold change vs veh, BET1 / RFU, CNOT2 / Fold change vs veh, CNOT2 / RFU, ZNF268 / Fold change vs veh, ZNF268 / Fold change vs veh, ZNF507 / RFU, DGCR2 / Fold change vs veh, DGCR2 / RFU, WDSUB1 / Fold change vs veh, WDSUB1 / Fold change vs veh, HSP90B1 /// MIR3652 / RFU, ADSS / Fold change vs veh, ADSS / RFU, GK / Fold change vs veh, GK / RFU, ZNF148 / Fold change vs veh, ZNF148 / RFU, TAF9 / Fold change vs veh, TAF9 / RFU, SLC1A5 / Fold change vs veh, SLC1A5 / RFU, SLMO2 / Fold change vs veh, SLMO2 / RFU, ABCC4 / Fold change vs veh, ABCC4 / RFU, LOC101060439 /// RAP1B / Fold change vs veh, LOC101060439 /// RAP1B / RFU, RFX7 / Fold change vs veh, RFX7 / RFU, GTPBP10 / Fold change vs veh, GTPBP10 / RFU, CNEP1R1 / Fold change vs veh, CNEP1R1 / RFU, BIVM-ERCC5 /// ERCC5 / Fold change vs veh, BIVM-ERCC5 /// ERCC5 / RFU, ILF3 / Fold change vs veh, ILF3 / RFU 11762660_at / Fold change /veh 11762660_at / RFU VCAN (11757783_s_at) / Fold change /veh VCAN (11757783_s_at) / RFU DDX43 (11728927_at) / Fold change /veh DDX43 (11728927_at) / RFU KRT8 (11758188_x_at) / Fold change /veh KRT8 (11758188_x_at) / RFU NKD1 (11759106_at) / Fold change /veh NKD1 (11759106_at) / RFU SRD5A1 (11742802_a_at) / Fold change /veh SRD5A1 (11742802_a_at) / RFU TPSAB1 /// TPSB2 (11721975_s_at) / Fold change /veh TPSAB1 /// TPSB2 (11721975_s_at) / RFU GSTM3 (11746129_a_at) / Fold change /veh GSTM3 (11746129_a_at) / RFU IL23R (11737362_x_at) / Fold change /veh IL23R (11737362_x_at) / RFU TMEM51 (11727254_a_at) / Fold change /veh TMEM51 (11727254_a_at) / RFU PIWIL2 (11732686_x_at) / Fold change /veh PIWIL2 (11732686_x_at) / RFU ORM1 (11744905_x_at) / Fold change /veh ORM1 (11744905_x_at) / RFU CCDC152 (11743942_at) / Fold change /veh CCDC152 (11743942_at) / RFU ECM1 (11717891_a_at) / Fold change /veh ECM1 (11717891_a_at) / RFU IL23R (11748794_a_at) / Fold change /veh IL23R (11748794_a_at) / RFU TNFAIP8L3 (11732012_x_at) / Fold change /veh TNFAIP8L3 (11732012_x_at) / RFU MBOAT4 (11741988_at) / Fold change /veh MBOAT4 (11741988_at) / RFU 11764193_at / Fold change /veh 11764193_at / RFU TMEM53 (11763286_at) / Fold change /veh TMEM53 (11763286_at) / RFU MAGEB2 (11727129_at) / Fold change /veh MAGEB2 (11727129_at) / RFU TMEM200A (11744735_a_at) / Fold change /veh TMEM200A (11744735_a_at) / RFU CCDC152 (11751479_a_at) / Fold change /veh CCDC152 (11751479_a_at) / RFU FAM211A (11726209_a_at) / Fold change /veh FAM211A (11726209_a_at) / RFU RGS16 (11746705_a_at) / Fold change /veh RGS16 (11746705_a_at) / RFU VCAN (11755009_s_at) / Fold change /veh VCAN (11755009_s_at) / RFU RHOB (11743442_s_at) / Fold change /veh RHOB (11743442_s_at) / RFU RGS16 (11720943_a_at) / Fold change /veh RGS16 (11720943_a_at) / RFU RGS16 (11720944_at) / Fold change /veh RGS16 (11720944_at) / RFU, VPS4B / Fold change vs veh, VPS4B / RFU, CREB1 / Fold change vs veh, CREB1 / RFU, DNAJC13 / Fold change vs veh, DNAJC13 / RFU, GNAQ / Fold change vs veh, GNAQ / RFU, CDK5R1 / Fold change vs veh, CDK5R1 / RFU, ZRANB3 / Fold change vs veh, ZRANB3 / RFU, CUL4A / Fold change vs veh, CUL4A / RFU, CCNY / Fold change vs veh, CCNY / RFU, UFL1 / Fold change vs veh, UFL1 / RFU, COG3 / Fold change vs veh, COG3 / RFU, DIAPH2 / Fold change vs veh, DIAPH2 / RFU, SKA2 / Fold change vs veh, SKA2 / RFU, AFF3 / Fold change vs veh, AFF3 / RFU, LMF1 / Fold change vs veh, LMF1 / RFU, IPO11 / Fold change vs veh, IPO11 / RFU, DFFB / Fold change vs veh, DFFB / RFU, FOXP1 / Fold change vs veh, FOXP1 / RFU, CARD8 / Fold change vs veh, CARD8 / RFU, STRN3 / Fold change vs veh, STRN3 / RFU, ADK / Fold change vs veh, ADK / RFU, RASSF2 / Fold change vs veh, RASSF2 / RFU, WIPF1 / Fold change vs veh, WIPF1 / RFU, LARP1B / Fold change vs veh, LARP1B / RFU, RASA1 / Fold change vs veh, RASA1 / RFU, RB1 / Fold change vs veh, RB1 / RFU, PPFIA1 / Fold change vs veh, PPFIA1 / RFU, MAT2A / Fold change vs veh, MAT2A / RFU, CCT5 / Fold change vs veh, CCT5 / RFU, WDR92 / Fold change vs veh, WDR92 / RFU, CUX1 / Fold change vs veh, CUX1 / RFU, TTC7A / Fold change vs veh, TTC7A / RFU, TMEM135 / Fold change vs veh, TMEM135 / RFU, DEPTOR / Fold change vs veh, DEPTOR / RFU, CPM / Fold change vs veh, CPM / RFU, DNAJB6 / Fold change vs veh, DNAJB6 / RFU, CACNA2D3 / Fold change vs veh, CACNA2D3 / RFU, DTX4 / Fold change vs veh, DTX4 / RFU, TFCP2 / Fold change vs veh, TFCP2 / RFU, GMCL1 /// GMCL1P1 / Fold change vs veh, GMCL1 /// GMCL1P1 / RFU, AEBP2 / Fold change vs veh, AEBP2 / RFU, SNHG1 /// SNORD22 /// SNORD25 /// SNORD26 /// SNORD27 /// SNORD28 /// SNORD29 /// SNORD31 / Fold change vs veh, SNHG1 /// SNORD22 /// SNORD25 /// SNORD26 /// SNORD27 /// SNORD28 /// SNORD29 /// SNORD31 / Fold change (Aza/veh), C12orf56 (ProbeSet 11735607_a_at) / Fold change (ACY-1035/veh), C12orf56 (ProbeSet 11735607_a_at) / Fold change (Aza/veh), FGFR1OP (ProbeSet 11751329_s_at) / Fold change (ACY-1035/veh), FGFR1OP (ProbeSet 11751329_s_at) / Fold change (Aza/veh), VPS36 (ProbeSet 11739960_a_at) / Fold change (ACY-1035/veh), VPS36 (ProbeSet 11739960_a_at) / RFU SYPL1 (11715823_x_at) / Fold change /veh SYPL1 (11715823_x_at) / RFU IGFBP7 (11715501_s_at) / Fold change /veh IGFBP7 (11715501_s_at) / RFU REEP3 (11722064_at) / Fold change /veh REEP3 (11722064_at) / RFU IGLL1 (11728026_x_at) / Fold change /veh IGLL1 (11728026_x_at): dose or concentration left out as unconfirmed", "conditions": "ProbeSet 11755425_a_at; LIST B", "data": [{"smiles": "Nc1ccc(-c2cccs2)cc1NC(=O)c1ccc2c(c1)cc(C1CC1)n2CCN1CCOCC1", "note": "[ACY-1035]", "values": [{"measurement": "Fold change vs veh, FAM179B", "result": 1.02}]}]}
